Patent US20100061928A1, “LABELLED ANALOGUES OF HALOBENZAMIDES AS RADIOPHARMACEUTICALS” (Institut National De La Sante et De La Recherche Medicale …, priority 2006, published 2010)
Counter-ions that a name gives are not always drawn.

Tests used:
[1] = test system: B16 F0 murine melanoma cells; assay: Colony forming technique: chemotherapeutic and radiotherapeutic (^125I) effects in vitro; assay type: cell-based; settings: for % of inhibition: radiotherapeutic effects alone; for % of inhibition (Radiotherapeutic effects alone): 125I-labelled, high specific activity
Protocol: The colony forming technique is involved, that is to say the growth of colonies of clones starting from tumour cells (B16 F0 murine melanoma cells) inoculated at a low concentration. This method makes it possible to visualize the cytotoxic and cytostatic properties of the compounds studied. The study was carried out in three parts:
The experiment is carried out on 6-well plates where 200 cells are inoculated in 2 ml of DMEM medium. After 20 hours, the medium is withdrawn and replaced with 2 ml of medium comprising the labelled compound at the desired concentration. This study is carried out in comparison with control wells comprising DMEM medium alone. […] The plates are incubated for 8 days and then the medium is withdrawn. The wells are rinsed with PBS and methanol is added for 3 minutes. Once attached, the cells are coloured with crystal violet with a contact time of 3 minutes. Subsequently, the colonies comprising more than 50 cells are counted using a dedicated counter. The growth of the treated colonies of cells is quantified in comparison with the controls. The activity of the product is expressed by a percentage of inhibition:
100−[(number of treated colonies)/(number of control colonies)]×100

[2] = test system: melanoma grafted subcutaneously (B16 F0 cells); assay: Antitumour effectiveness by systemic administration after labelling with ^131I; assay type: in vivo, C57BL6 mice; settings: single i.v. administration 37 MBq on D18 after graft, versus controls
Protocol: The study relates to 20 C57B16 mice bearing a melanoma grafted subcutaneously by injection of 50 000 B16 F0 cells (0.1 ml). On the 17th day, the animals are weighed and the tumours are measured in two dimensions (L, l), the tumour volume being expressed by L×l^2×½. On the 18th day (D18), the mice are divided into two groups, the labelled compound [^131I]-31 with a high specific activity is administered by the i.v. route (37 MBq; 0.2 ml) to 10 mice and 10 constitute the control batch. The monitoring of the animals is carried out with all the necessary radioprotection measures and in particular the removal of the contaminated bedding, the animals are weighed and the tumours are measured every two days. Taking into account the volume of the tumours and ethical considerations, the surviving animals were euthenized on the 20th day after injection, i.e. 38 days after the tumour graft. […] The evaluation of the effectiveness of an i.v. administration of [^131I]-31 on tumour growth of C57BL6 mice which have received a subcutaneous graft of B 16 melanoma 18 days before treatment is represented in FIG. 2. The times on the abscissa are given with respect to the day of inoculation of the tumours and with respect to the day of treatment.
The evaluation of the effectiveness of an i.v. administration of [^131I]-46 on tumour growth of C57BL6 mice which have received a subcutaneous graft of B 16 melanoma is represented in FIG. 3. The times on the abscissa are given with respect to the day of inoculation of the tumours and with respect to the first day of treatment. Under these conditions, the median of survival is extended and changes from 32 days for the control animals to 39 days for the treated animals. This experiment was repeated according to the same protocol and fully superimposable results were obtained.

murine melanoma (B16 F0) = assay: Cytotoxicity, Hoechst test, B16 F0
Protocol: The B16 F0, M4Beu and fibroblast lines are cultured in 75 cm^2 dishes comprising 12 ml of Eagle's essential medium with Earle's salts and Glutamax (Gibco-BRL, Paisley, Scotland) supplemented with 10% foetal calf serum, a solution of vitamins at 1× (Gibco), 1 mM sodium pyruvate (Gibco), a solution of nonessential amino acids at 1× (Gibco) and 4 μg/ml of gentamicin (antibiotic).
The cells are maintained at 37° C. in an incubator under an atmosphere comprising 5% CO2.
The cells (5×10^3) in 150 μl of culture medium are inoculated in 96-well plates (Nunclon™, Nunc, Roskilde, Denmark). […] The stock solutions (200×) are prepared with DMSO and are then stored at −20° C. 50 μl of a solution comprising stock solution and culture medium are subsequently added to the various wells (taking into account the different dilutions). Each test is carried out in triplicate.
The amount of cellular DNA is subsequently measured by the Hoechst test. The plates are then defrosted at ambient temperature for 10 minutes. 100 μl of a 0.01% (w/v) solution of SDS (sodium dodecyl sulphate) in sterile distilled water are subsequently added using a microvolume dispenser. The plates (96 well) are incubated with stirring at ambient temperature for 30 minutes and are then frozen at −80° C. for one hour. The plates are subsequently defrosted at ambient temperature for 20 minutes. […] The plates are then incubated for one hour at ambient temperature, with stirring and with the exclusion of light. The fluorescence obtained is measured using a Fluoroskan 96-well at the excitation wavelength at 360 nm and emission wavelength at 460 nm. Under these conditions, the fluorescence is proportional to the cell biomass in each well. The percentage of survival is defined by the fluorescence in each well (treated) with respect to the fluorescence of the control wells (drug-free), the blanks being subtracted (drug-free and cell-free wells).

tumour = assay: Dosimetry with regard to the tumour (MIRD programme, extrapolated to ^131I); settings: for Effective period: extrapolated to 131I labelling; for Biological period: from biodistribution data
[3] = test system: grafted B16 F0 murine melanoma tumour; assay: Biodistribution of the ^125I-labelled molecules in the melanoma-bearing mouse (autoradiography of whole-body sections); settings: for Biodistribution, Mean, B 16: B 16 tumour
Protocol: The distribution of the radioactivity of the various compounds in the body (tumour and other organs) is quantified using an Ambis 4000 image analyzer on sections of whole animals. […] All the in vivo experimentation is carried out within the context defined by French legislation relating to animal experimentation.
The B16 F0 melanoma cells are provided by the ATCC and cultured in monolayers in culture medium (MEM, Invitrogen) supplemented with 10% foetal calf serum and antibiotics. The cultures are maintained by subculturing after trypsinization. The cells of the first passages are frozen and stored in liquid nitrogen. For the transplanting, the cells in culture at confluence are detached by trypsinization and washed with phosphate buffer (PBS).
The distribution of the radioactivity present in the sections is analyzed using an AMBIS 4000 analyzer (Scanalytics, CSPI, San Diego, Calif.), which is a proportional counter with a multiwire chamber validated and calibrated beforehand for the monitoring of iodine in the mouse. The measurements require acquisition times of 1000 minutes. […] The value of radioactivity per unit of surface area (cpm/mm^2) is converted to concentration (kBq/g) and expressed as percentage of the injected dose/g of tissue (% ID/g).

[4] = Elimination of the molecules: cumulative urinary and faecal excretion 0-72 hours; assay type: in vivo, mouse; settings: cumulative excretion 0-72 hours

## [125I-].[Na+] [Na^125I, sodium iodide Na^125I, reference compound]
[1]; comparison for the compounds labelled with iodine-125 with a high specific activity
  effect on colony growth (in words): without effect

## CCN(CC)CCNC(=O)c1cccc2c(=O)c3cc([125I])ccc3[nH]c12.Cl.Cl [[^125I]-84, [^125I]-N-(2-diethylaminoethyl)-9,10-dihydro-7-iodo-9-oxoacridine-4-carboxamide dihydrochloride]
[1]; cold compound 84 at 0.75 μM with labelled [^125I]-84, activity 0
  Cumulative effect (% inhib): 17.3 % inhib
[1]; cold compound 84 at 0.75 μM with labelled [^125I]-84, activity 1.5 kBq
  Cumulative effect (% inhib): 18.3 % inhib
[1]; cold compound 84 at 0.75 μM with labelled [^125I]-84, activity 6 kBq
  Cumulative effect (% inhib): 22 % inhib
[1]; cold compound 84 at 0.75 μM with labelled [^125I]-84, activity 12 kBq
  Cumulative effect (% inhib): 40.3 % inhib
[1]; cold compound 84 at 0.75 μM with labelled [^125I]-84, activity 24 kBq
  Cumulative effect (% inhib): 54 % inhib
[1]; cold compound 84 at 0.75 μM with labelled [^125I]-84, activity 48 kBq
  Cumulative effect (% inhib): 88 % inhib
[1]; activity 1.5 kBq, concentration 9.31 pM
  % of inhibition: 4.5%
[1]; activity 6 kBq, concentration 37.23 pM
  % of inhibition: 12.4%
[1]; activity 12 kBq, concentration 74.5 pM
  % of inhibition: 29%
[1]; activity 24 kBq, concentration 148.9 pM
  % of inhibition: 30%
[1]; activity 48 kBq, concentration 297.8 pM
  % of inhibition: 69%

## CCN(CC)CCNC(=O)c1cccc2cc3cccc([125I])c3nc12.Cl.Cl [[^125I]-102, [^125I]-N-(2-diethylaminoethyl)-5-iodoacridine-4-carboxamide dihydrochloride]
[1]; 1.39 kBq, 8.625 pM
  % of inhibition (Radiotherapeutic effects alone): 11%
[1]; 2.78 kBq, 17.25 pM
  % of inhibition (Radiotherapeutic effects alone): 14.3%
[1]; 5.55 kBq, 34.5 pM
  % of inhibition (Radiotherapeutic effects alone): 40.3%
[1]; 11.1 kBq, 69 pM
  % of inhibition (Radiotherapeutic effects alone): 65.5%
[1]; 16.7 kBq, 103.5 pM
  % of inhibition (Radiotherapeutic effects alone): 79%
[1]; 22.2 kBq, […]
  % of inhibition (Radiotherapeutic effects alone): 96.1%
[1]; cold compound 102 at 6.25 nM with [125I]-102 1.39 kBq
  Cumulative effect (% inhib) (Radiotherapeutic and chemotherapeutic effects): 30%
[1]; cold compound 102 at 6.25 nM with [125I]-102 2.78 kBq
  Cumulative effect (% inhib) (Radiotherapeutic and chemotherapeutic effects): 37.5%
[1]; cold compound 102 at 6.25 nM with [125I]-102 5.55 kBq
  Cumulative effect (% inhib) (Radiotherapeutic and chemotherapeutic effects): 59.5%
[1]; cold compound 102 at 6.25 nM with [125I]-102 11.1 kBq
  Cumulative effect (% inhib) (Radiotherapeutic and chemotherapeutic effects): 76.5%
[1]; cold compound 102 at 6.25 nM with [125I]-102 16.7 kBq
  Cumulative effect (% inhib) (Radiotherapeutic and chemotherapeutic effects): 89%

## CCN(CC)CCNC(=O)c1ccc2cc([131I])ccc2n1.Cl.Cl [[^131I]-31, [^131I]-N-(2-diethylaminoethyl)-6-iodoquinoline-2-carboxamide dihydrochloride]
[2]
  median of survival (in words): a significant difference regarding the median of survival was not demonstrated
  tumour growth (in words): markedly slowed down

## COc1cc(NS(C)(=O)=O)ccc1Nc1c2ccccc2nc2ccccc12 [amsacrine, reference compound]
Murine melanoma (B16 F0); read-out: IC50 B16, B16 F0 murine melanoma, 48 hours incubation, Hoechst test
  IC50: 35 nM

## CCN(CC)CCNC(=O)c1cccc2cc3cccc(I)c3nc12 [compound 102, N-(2-diethylaminoethyl)-5-iodoacridine-4-carboxamide dihydrochloride]
tumour
  Effective period: 35.4 h
  Biological period: 43.3 hours
Murine melanoma (B16 F0); various cell lines studied (B16 F0, M4Beu, fibroblasts)
  cytotoxic activity compared with DACA (in words): greater activity than the parent compound
[3]; 1 H
  Biodistribution, Mean, GB: 281.34
  Biodistribution, Mean, muscle: 2.34
[3]; 6 H
  Biodistribution, Mean, GB: 281.20
  Biodistribution, Mean, muscle: 1.36
[3]; 3 H
  Biodistribution, Mean, muscle: 1.34

## CCN(CC)CCNC(=O)c1ccc2cncc(I)c2n1.Cl.Cl [compound 142, N-(2-diethylaminoethyl)-8-iodo-1,6-naphthyridine-2-carboxamide dihydrochloride]
[4]; faeces, mice in metabolic cages
  Faecal elimination 0-72 hours (Faeces): 29.4%
[4]; urine + faeces
  Urinary and faecal elimination 0-72 hours (Total): 98.3%
[4]; urine, mice in metabolic cages
  Urinary elimination 0-72 hours (Urine): 68.9%
tumour
  Effective period: 26.1 h
  Biological period: 30.2 hours
[3]; 1 H
  Biodistribution, Mean, B 16: 23.22
  Biodistribution, Mean, Ic: 32.83
  Biodistribution, Mean, Sc: 17.58
  Biodistribution, Mean, blood: 2.21
  Biodistribution, Mean, kidney: 4.01
  Biodistribution, Mean, liver: 3.92
  Biodistribution, Mean, lungs: 2.36
  Biodistribution, Mean, muscle: 0.86
  Biodistribution, Mean, spleen: 5.38
  Biodistribution, Mean, thyroid: 20.16
  Biodistribution, Mean, uvea: 24.11
[3]; 3 H
  Biodistribution, Mean, B 16: 13.87
  Biodistribution, Mean, GB: 41.51
  Biodistribution, Mean, Ic: 47.65
  Biodistribution, Mean, Sc: 9.76
  Biodistribution, Mean, blood: 1.88
  Biodistribution, Mean, kidney: 1.51
  Biodistribution, Mean, liver: 2.27
  Biodistribution, Mean, lungs: 1.87
  Biodistribution, Mean, muscle: 0.43
  Biodistribution, Mean, spleen: 0.93
  Biodistribution, Mean, thyroid: 41.44
  Biodistribution, Mean, uvea: 20.30
[3]; 6 H
  Biodistribution, Mean, B 16: 11.42
  Biodistribution, Mean, GB: 28.67
  Biodistribution, Mean, Ic: 43.48
  Biodistribution, Mean, Sc: 9.17
  Biodistribution, Mean, blood: 1.36
  Biodistribution, Mean, kidney: 1.20
  Biodistribution, Mean, liver: 1.49
  Biodistribution, Mean, lungs: 1.26
  Biodistribution, Mean, muscle: 0.24
  Biodistribution, Mean, thyroid: 56.95
  Biodistribution, Mean, uvea: 13.15
[3]; 24 H
  Biodistribution, Mean, B 16: 8.37
  Biodistribution, Mean, Ic: 0.82
  Biodistribution, Mean, Sc: 0.62
  Biodistribution, Mean, thyroid: 115.66
  Biodistribution, Mean, uvea: 10.00
[3]; 72 H
  Biodistribution, Mean, B 16: 3.31
  Biodistribution, Mean, Sc: 2.13
  Biodistribution, Mean, uvea: 13.06
[3]; ^125I-labelled compound, melanoma-bearing mouse
  tumour concentration (in words): very high tumour concentration from one hour
[3]; brain, 1 H
  Biodistribution, Mean, brain: 0.35
[3]; pancreas, 1 H
  Biodistribution, Mean, pancreas: 1.78
